From ChEMBL document CHEMBL1152129, “Quantitative structure-activity relationship and complex network approach to monoamine oxidase A and B inhibitors” (J Med Chem, 2008)

Tests used:
[1] = molecular target: T1, Amine oxidase [flavin-containing] B (Homo sapiens, UniProt P27338); assay: Inhibition of human recombinant MAOB at 50 uM by fluorimetric method
T1 sequence (P27338 whole entry): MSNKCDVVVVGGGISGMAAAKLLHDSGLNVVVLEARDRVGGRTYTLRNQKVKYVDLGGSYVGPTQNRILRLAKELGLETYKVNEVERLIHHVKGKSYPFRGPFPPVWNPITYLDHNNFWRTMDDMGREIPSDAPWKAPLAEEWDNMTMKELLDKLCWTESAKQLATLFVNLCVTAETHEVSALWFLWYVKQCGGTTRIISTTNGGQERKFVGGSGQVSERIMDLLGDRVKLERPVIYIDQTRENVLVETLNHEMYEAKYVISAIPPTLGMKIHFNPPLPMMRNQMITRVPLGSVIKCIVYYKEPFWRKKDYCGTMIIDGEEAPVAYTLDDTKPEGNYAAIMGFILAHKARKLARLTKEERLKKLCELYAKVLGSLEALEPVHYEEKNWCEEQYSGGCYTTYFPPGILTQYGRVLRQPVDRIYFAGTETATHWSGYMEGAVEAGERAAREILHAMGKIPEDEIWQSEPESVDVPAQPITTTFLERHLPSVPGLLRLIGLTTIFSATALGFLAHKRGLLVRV

[2] = molecular target: T2, Amine oxidase [flavin-containing] A (Homo sapiens, UniProt P21397); assay: Inhibition of human recombinant MAOA by fluorimetric method
T2 sequence (P21397 whole entry): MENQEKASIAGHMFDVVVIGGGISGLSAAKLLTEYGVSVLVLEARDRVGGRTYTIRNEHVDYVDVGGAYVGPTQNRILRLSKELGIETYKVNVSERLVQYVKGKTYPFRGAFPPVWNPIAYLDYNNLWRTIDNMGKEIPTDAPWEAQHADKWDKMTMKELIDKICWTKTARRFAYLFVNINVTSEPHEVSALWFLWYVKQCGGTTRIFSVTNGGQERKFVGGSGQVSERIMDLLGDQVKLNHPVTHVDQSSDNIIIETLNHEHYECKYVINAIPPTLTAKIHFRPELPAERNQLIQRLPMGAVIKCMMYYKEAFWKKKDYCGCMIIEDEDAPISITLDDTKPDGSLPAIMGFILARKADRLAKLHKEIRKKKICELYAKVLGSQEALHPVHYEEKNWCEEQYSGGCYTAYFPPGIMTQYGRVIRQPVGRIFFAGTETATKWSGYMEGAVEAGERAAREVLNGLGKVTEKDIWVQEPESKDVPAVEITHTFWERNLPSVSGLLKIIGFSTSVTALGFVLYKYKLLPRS

[3] = species on record: Homo sapiens; assay: Selectivity ratio of IC50 for human recombinant MAOA to IC50 for human recombinant MAOB
[4] = molecular target: T1, Amine oxidase [flavin-containing] B
Description: Inhibition of human recombinant MAOB by fluorimetric method

[5] = molecular target: T1, Amine oxidase [flavin-containing] B; assay: Inhibition of human recombinant MAOB at 100 uM by fluorimetric method
[6] = molecular target: T2, Amine oxidase [flavin-containing] A; assay: Inhibition of human recombinant MAOA at 100 uM by fluorimetric method
[7] = molecular target: T1, Amine oxidase [flavin-containing] B; assay: Inhibition of human recombinant MAOB at 1 mM by fluorimetric method; settings: 1000 µM
[8] = molecular target: T2, Amine oxidase [flavin-containing] A; assay: Inhibition of human liver MAOA
[9] = molecular target: T1, Amine oxidase [flavin-containing] B; assay: Inhibition of human liver MAOB

Row | SMILES | IC50 [2] [µM] | Ratio IC50 [3] | IC50 [4] [µM] | Activity [6] | also measured
1 | COc1c(OC2CCCCC2=O)ccc2c(C)cc(=O)oc12 (centres undefined) | 15.4 | < 0.31 |  |  | Activity [1]: Not Active
2 | Cc1cc(=O)oc2cc(OC3CCCC3=O)ccc12 (centres undefined) | 0.0405 | 0.0073 | 5.57 |  | 
3 | COc1c(O)ccc2cc(N)c(=O)oc12 |  |  |  | Not Active | Activity [5]: Not Active
4 | COc1cc(O)cc2oc(=O)ccc12 |  |  |  | Not Active | Activity [5]: Not Active
5 | Cc1cc(=O)oc2c(C)c(O)ccc12 |  |  | 71.3 | Not Active | 
6 | COc1cc(OC2CCCCC2=O)cc2oc(=O)ccc12 (centres undefined) | 20.4 | < 0.41 |  |  | Activity [1]: Not Active
7 | COc1c(OCC(C)=O)ccc2c3c(c(=O)oc12)CCC3 | 0.121 | 0.0093 | 13 |  | 
8 | Cc1cc(=O)oc2c(C)c3oc4c(c3cc12)CCC4 | 32.8 | 0.45 | 73.2 |  | 
9 | Cc1cc(=O)oc2c(C)c3oc4c(c3cc12)CCCC4 |  |  |  | Not Active | Activity [5]: Not Active
10 | Cc1c(O)ccc2c3c(c(=O)oc12)CCC3 |  |  |  | Not Active | Activity [5]: Not Active
11 | COc1c2ccc(=O)oc2cc2occ(C)c12 | 255 | 0.98 | 260 |  | 
12 | COc1c(OCC(C)=O)ccc2c3c(c(=O)oc12)CCCC3 | 0.396 | 0.033 | 12.1 |  | 
13 | CC(=O)COc1ccc2c(oc(=O)c3ccccc32)c1C | 2.56 | 0.091 | 28.1 |  | 
14 | C=C(Br)COc1ccc2c3c(c(=O)oc2c1C)CCC3 | 0.13 | 110 | 0.00118 |  | 
15 | C=C(Br)COc1ccc2c3c(c(=O)oc2c1C)CCCC3 | 0.695 | 2.94 | 0.236 |  | 
16 | CC(=O)COc1ccc2c3c(c(=O)oc2c1C)CCC3 | 0.235 | 1.42 | 0.165 |  | 

Row | SMILES | IC50 [2] [µM] | Ratio IC50 [3] | IC50 [4] [µM] | Activity [6] | also measured
17 | COc1c(O)ccc2c3c(c(=O)oc12)CCCC3 |  | > 1.99 | 50.2 | Not Active | 
18 | COc1cc(OCC(C)=O)cc2oc(=O)ccc12 |  | > 2.27 | 44.1 | Not Active | 
19 | Cc1cc(=O)oc2c(C)c(OC3CCCC3=O)ccc12 (centres undefined) | 0.00716 | 0.00067 | 10.6 |  | 
20 | Cc1cc(=O)oc2c(C)c(OC3CCCCC3=O)ccc12 (centres undefined) | 0.4 | 0.1 | 3.87 |  | 
21 | COc1c2occc2cc2cc(N)c(=O)oc12 | 12.2 | 0.74 | 16.5 |  | 
22 | COc1c(OCC(C)=O)ccc2c1oc(=O)c1ccccc12 | 11.9 | 1.27 | 9.36 |  | 
23 | CN(C)/N=N/c1[nH]cnc1C(N)=O [DACARBAZINE] |  |  |  |  | Activity [7]: Not Active; Activity [8]: Not Active
24 | C[C@H]1O[C@@H](O[C@H]2[C@@H](O)C[C@H](O[C@H]3[C@@H](O)C[C@H](O[C@H]4CC[C@@]5(C)[C@H](CC[C@@H]6[C@@H]5CC[C@]5(C)[C@@H](C7=CC(=O)OC7)CC[C@]65O)C4)O[C@@H]3C)O[C@@H]2C)C[C@H](O)[C@@H]1O [DIGITOXIN] |  |  |  | Not Active | Activity [9]: Not Active; Activity [8]: Not Active
25 | C[C@H]1O[C@@H](O[C@H]2[C@@H](O)C[C@H](O[C@H]3[C@@H](O)C[C@H](O[C@H]4CC[C@@]5(C)[C@H](CC[C@@H]6[C@@H]5C[C@@H](O)[C@]5(C)[C@@H](C7=CC(=O)OC7)CC[C@]65O)C4)O[C@@H]3C)O[C@@H]2C)C[C@H](O)[C@@H]1O [DIGOXIN] |  |  |  | Not Active | Activity [9]: Not Active; Activity [8]: Not Active
26 | Cc1cc(=O)oc2cc(O)ccc12 [HYMECROMONE] |  |  | 80.4 | Not Active | 
27 | CCN(CC)CC(=O)Nc1c(C)cccc1C [LIDOCAINE] |  |  |  |  | Activity [7]: Not Active
28 | C[C@@H]1O[C@@H](O[C@H]2C[C@](O)(C(=O)CO)Cc3c(O)c4c(c(O)c32)C(=O)c2ccccc2C4=O)C[C@H](N)[C@@H]1O [MEDORUBICIN] |  |  |  |  | Activity [7]: Not Active
29 | CN(Cc1cnc2nc(N)nc(N)c2n1)c1ccc(C(=O)N[C@@H](CCC(=O)O)C(=O)O)cc1 [METHOTREXATE] |  |  |  |  | Activity [7]: Not Active
30 | COC(F)(F)C(Cl)Cl [METHOXYFLURANE] |  |  |  |  | Activity [7]: Not Active
31 | O=C(NCCN1CCOCC1)c1ccc(Cl)cc1 [MOCLOBEMIDE] |  |  |  |  | Activity [7]: Not Active
32 | CC(C)(S)[C@@H](N)C(=O)O [PENICILLAMINE] |  |  |  | Not Active | Activity [9]: Not Active; Activity [8]: Not Active
